Assay results reported in patent publication US8101375B2, “Compositions and methods for detecting phosphomonoester” (Illumina, Inc., priority 2005, dated 2012).

Legend:
PKA kinase = PKA kinase (Homo sapiens, UniProt P17612); experiment: Multiplex kinase profiling assay, 194-target pool, chemical labeling, PKA kinase; format: biochemical; settings: selectivity check
Procedure: (§1) A kinase profiling assay was carried out in four major steps, including the phosphorylation of protein target in a kinase enzyme reaction, labeling of phosphorylated target, hybridization of labeled target to the array, and detection of hybridized target on the array.
(§2) In the first step, phosphorylation was carried out in duplex format such that a mixture of two DNA-protein conjugate targets, one having an amino acid recognition sequence for p60c-src kinase and the other for PKA kinase, were co-incubated with p60c-src kinase and PKA kinase. The reaction was performed in 15 ul of 50 mM HEPES, containing 0.1 mM EDTA, 0.015% Brig 35, 0.15 mM ATP, 30 mM MgCl2, 0.1% 2-mercaptoethanol, pH 7.5.
(§3) Upon completion of the enzymatic reaction; the second step was carried out to detect phosphorylation using chemical labeling or antibody-based labeling. In the chemical labeling method, a solution of 5-(aminoacetamido)fluorescein (NH2-FAM, Molecular Probes, Oreg.) and EDC in MES buffer, pH 6.0, was added to the reaction mixture to a final concentration of 150 mM EDC and 200 μM of NH2-FAM. Where pre-treatment was used to block (i.e. protect) […] moieties, the pH of the reaction mixture was first adjusted to pH 4.5 and then pre-treated with 100 mM of EDC for 1.5 hours at 25° C. After the pre-treatment, the NH2-FAM and EDC were added and the reaction was allowed to proceed overnight. […]

p60c-src kinase = p60c-src kinase (Homo sapiens, UniProt P12931); experiment: Multiplex kinase profiling assay, 194-target pool, chemical labeling, p60c-src kinase; format: biochemical; settings: chemical labeling with low pH EDC pre-treatment
Chain of p60c-src kinase (P12931 whole entry): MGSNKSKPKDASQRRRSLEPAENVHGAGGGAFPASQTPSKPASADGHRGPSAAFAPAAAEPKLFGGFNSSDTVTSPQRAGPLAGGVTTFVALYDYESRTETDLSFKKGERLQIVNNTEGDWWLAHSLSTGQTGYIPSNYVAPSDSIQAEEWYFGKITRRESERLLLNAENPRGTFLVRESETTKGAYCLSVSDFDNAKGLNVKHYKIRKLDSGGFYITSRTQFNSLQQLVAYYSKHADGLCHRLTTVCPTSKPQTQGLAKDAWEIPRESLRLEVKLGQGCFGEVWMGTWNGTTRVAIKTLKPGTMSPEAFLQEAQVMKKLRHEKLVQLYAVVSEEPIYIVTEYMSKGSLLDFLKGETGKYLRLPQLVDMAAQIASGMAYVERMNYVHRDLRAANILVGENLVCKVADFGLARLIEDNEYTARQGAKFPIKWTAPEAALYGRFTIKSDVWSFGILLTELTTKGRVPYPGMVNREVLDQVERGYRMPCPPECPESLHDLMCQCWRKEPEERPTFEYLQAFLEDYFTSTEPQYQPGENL
Procedure: as §1, §2, §3

- effect on PKA kinase (PKA kinase): no detectable effect
- inhibition of p60c-src kinase (p60c-src kinase): 85%
Compound: COc1cc2ncnc(Nc3ccc(Oc4ccccc4)cc3)c2cc1OC [Src Kinase Inhibitor I]
